Results: publication PMC7044140, “Comparative studies on similarities and differences of cyclodipeptide oxidases for installation of C–C double bonds at the diketopiperazine ring” (Applied Microbiology and Biotechnology, 2020)

Experiments:
[1] = biological target: T1, CDO-Np (CDO-NpA/CDO-NpB) (Nocardiopsis sp. L17-MgMaSL7, UniProt A0A317LX08+A0A317LXS7); test: LC-MS/HPLC product formation with E. coli crude extract; assay type: biochemical; conditions: 1 mM substrate, 1 mM phenazine methosulfate, pH 7.5, 40 °C; dehydrogenation
T1 construct: gene BDW27_11054; desalted crude extract
T1 sequence (A0A317LXS7 1-185): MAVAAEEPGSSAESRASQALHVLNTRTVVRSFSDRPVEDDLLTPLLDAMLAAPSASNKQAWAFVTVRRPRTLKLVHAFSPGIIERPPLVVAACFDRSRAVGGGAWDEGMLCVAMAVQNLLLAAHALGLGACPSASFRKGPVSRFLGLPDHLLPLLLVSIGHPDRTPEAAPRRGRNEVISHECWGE
T1 sequence (A0A317LX08 1-105): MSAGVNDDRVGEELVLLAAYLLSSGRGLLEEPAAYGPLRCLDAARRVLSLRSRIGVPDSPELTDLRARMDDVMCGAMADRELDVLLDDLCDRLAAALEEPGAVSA

[2] = biological target: T2, AlbA/B (Streptomyces noursei, UniProt Q8GED8+Q8GED9); test: as above; assay type: biochemical; conditions: 1 mM substrate, 1 mM phenazine methosulfate, pH 7.5, 40 °C; dehydrogenation
T2 construct: both subunits co-expressed from overlapping genes in pQE-60 (pKB90) in E. coli SG 13009; desalted crude extract; CDOs described as multimers above 2000 kDa, estimated B to A ratio 1:10
T2 sequence (Q8GED9 whole entry): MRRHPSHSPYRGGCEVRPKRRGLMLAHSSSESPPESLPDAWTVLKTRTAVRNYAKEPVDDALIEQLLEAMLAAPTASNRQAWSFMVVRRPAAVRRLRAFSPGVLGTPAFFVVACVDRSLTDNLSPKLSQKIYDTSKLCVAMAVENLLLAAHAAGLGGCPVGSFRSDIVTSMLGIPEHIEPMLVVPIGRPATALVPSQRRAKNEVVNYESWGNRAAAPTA
T2 sequence (Q8GED8 whole entry): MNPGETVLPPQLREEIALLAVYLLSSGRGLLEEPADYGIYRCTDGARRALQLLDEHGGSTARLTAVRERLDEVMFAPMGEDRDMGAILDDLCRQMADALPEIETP

| SMILES | LC-MS/HPLC product formation with E. coli crude extract [1] | LC-MS/HPLC product formation with E. coli crude extract [2] |
| --- | --- | --- |
| CC(C)C[C@@H]1NC(=O)[C@H](Cc2ccccc2)NC1=O [1a, cyclo-L-Phe-L-Leu] | CDO-Np showed very high activity toward 1a and 2a |  |
| O=C1N[C@@H](Cc2ccc(O)cc2)C(=O)N[C@H]1Cc1ccccc1 [2a, cyclo-L-Phe-L-Tyr] | In vitro incubation of 2a with CDO-Np led to an almost complete conversion to 2d | The behavior of AlbA/B with 2a was similar to CDO-Np with 3a and 5a |
| O=C1N[C@@H](Cc2c[nH]c3ccccc23)C(=O)N[C@H]1Cc1ccc(O)cc1 [3a, cyclo-L-Trp-L-Tyr] |  | Only one didehydrogenated product 3b or 5b was detected in the reaction mixtures of AlbA/B |
